These results are taken from PMC11249239 (PLOS ONE, 2024).

The structures appear in SMILES notation. Where two headings read alike, the source gives them in different places.

For orientation: IC50 means the midpoint of a concentration-inhibition curve. In general, EC50 refers to the concentration giving half of the maximal effect.

The test system of test [1] is pan-HDACs (HeLa cell extract). The test can be described thus: In vitro HDAC enzyme inhibition, HeLa cell nuclear extract (Fluor de Lys). Type of test: biochemical. The following applies: ± margin of error of 95% confidence interval. The source says: (§1) In vitro HDAC enzyme inhibition assays utilized HeLa cell extract for pan-HDACs with the substrate Fluor-Lys following the manufacturer’s protocol (BIOMOL/ENZO, Plymouth Meeting, PA). For isoform assays, purified HDAC1, HDAC3, and HDAC6 recombinant proteins produced by expressing epitope-tagged full-length proteins in the sf9 baculovirus expression vector system were purchased from PBS Bioscience (San Diego, CA). […] The reaction commenced with the addition of HDAC substrate at room temperature and proceeded for 30 minutes. Termination of the reaction was achieved by adding 50 μL of Fluor de Lys (TM) Assay Developer. The fluorophore was excited at 360 nm and emitted light at 460 nm. Relative fluorescence was measured using a FlexStation II plate reader (Molecular Devices, Sunnyvale, CA).

The target in a further test is T1, HDAC6 (Homo sapiens, UniProt Q9UBN7).
T1 construct: purchased PBS Bioscience [sic] (San Diego, CA); host or cells: Sf9 insect cells / baculovirus
T1 sequence (Q9UBN7 1-1215): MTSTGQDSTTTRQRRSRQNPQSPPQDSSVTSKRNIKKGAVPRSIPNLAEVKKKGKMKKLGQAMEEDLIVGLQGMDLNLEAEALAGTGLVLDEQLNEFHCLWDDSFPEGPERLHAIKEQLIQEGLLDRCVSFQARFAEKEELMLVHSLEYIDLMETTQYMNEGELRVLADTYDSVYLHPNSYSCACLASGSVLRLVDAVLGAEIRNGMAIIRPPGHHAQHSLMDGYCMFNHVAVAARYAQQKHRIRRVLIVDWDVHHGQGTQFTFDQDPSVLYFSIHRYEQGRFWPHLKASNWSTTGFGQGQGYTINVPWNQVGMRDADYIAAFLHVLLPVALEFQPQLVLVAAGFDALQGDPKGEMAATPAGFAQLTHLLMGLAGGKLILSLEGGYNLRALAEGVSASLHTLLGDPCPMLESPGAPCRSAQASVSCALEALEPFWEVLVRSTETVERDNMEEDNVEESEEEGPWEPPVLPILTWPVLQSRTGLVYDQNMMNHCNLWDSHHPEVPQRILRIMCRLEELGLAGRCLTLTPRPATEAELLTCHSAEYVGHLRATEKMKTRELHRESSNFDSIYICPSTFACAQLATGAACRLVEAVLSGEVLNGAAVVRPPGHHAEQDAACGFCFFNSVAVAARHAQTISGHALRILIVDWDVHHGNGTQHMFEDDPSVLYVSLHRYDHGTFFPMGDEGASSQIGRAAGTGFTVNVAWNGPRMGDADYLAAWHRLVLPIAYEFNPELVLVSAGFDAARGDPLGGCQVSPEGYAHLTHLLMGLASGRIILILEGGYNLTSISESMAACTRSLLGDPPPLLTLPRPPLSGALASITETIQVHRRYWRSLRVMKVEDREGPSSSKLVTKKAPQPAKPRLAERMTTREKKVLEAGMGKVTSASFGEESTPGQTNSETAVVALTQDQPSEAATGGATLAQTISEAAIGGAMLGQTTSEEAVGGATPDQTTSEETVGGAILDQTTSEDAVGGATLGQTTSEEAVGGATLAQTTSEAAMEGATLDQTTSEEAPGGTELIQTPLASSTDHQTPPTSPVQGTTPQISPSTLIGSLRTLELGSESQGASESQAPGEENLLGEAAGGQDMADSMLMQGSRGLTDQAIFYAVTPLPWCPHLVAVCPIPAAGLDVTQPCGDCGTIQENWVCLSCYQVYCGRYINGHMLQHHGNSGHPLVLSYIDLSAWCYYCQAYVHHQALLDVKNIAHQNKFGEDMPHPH
The test can be described thus: In vitro HDAC isoform inhibition, purified recombinant HDAC6. Type of test: biochemical.
Excerpt: as §1

The target of the next test is HDAC8 (Homo sapiens, UniProt Q9BY41). The experiment in a line: HDAC8 activity inhibition (data not shown). It counts as biochemical.
Chain of HDAC8 (Q9BY41 whole entry, species assumed): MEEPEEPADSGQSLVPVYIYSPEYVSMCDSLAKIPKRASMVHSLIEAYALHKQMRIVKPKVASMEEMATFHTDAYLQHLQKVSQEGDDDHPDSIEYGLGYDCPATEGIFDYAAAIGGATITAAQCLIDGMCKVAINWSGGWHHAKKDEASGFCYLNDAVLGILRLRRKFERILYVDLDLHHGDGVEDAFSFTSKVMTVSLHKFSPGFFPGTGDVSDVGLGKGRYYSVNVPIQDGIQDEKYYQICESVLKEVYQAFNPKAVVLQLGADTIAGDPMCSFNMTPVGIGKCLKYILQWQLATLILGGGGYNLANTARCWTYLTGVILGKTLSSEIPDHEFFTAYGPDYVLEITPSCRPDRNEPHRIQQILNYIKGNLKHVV
In the next test the test system is MCF7 (ER+) cells. The test can be described thus: Cell growth inhibition (CCK8 cytotoxicity assay), MCF7. Type of test: cell-based. The following applies: Homo sapiens, 48 h treatment, read-out: Average EC50 ± SD, cell growth inhibition. For orientation: Formazan colour is commonly taken as a measure of viable cells.
For another test, the system named is T47D (ER+) cells. The experiment in a line: Cell growth inhibition (CCK8 cytotoxicity assay), T47D. Type of test: cell-based. The note with it: 48 h treatment, read-out: Average EC50 ± SD, cell growth inhibition.
The test system of a further test is HCC-1937 (TNB) cells. The test can be described thus: Cell growth inhibition (CCK8 cytotoxicity assay), HCC-1937. Type of test: cell-based. The note with it: 48 h treatment, read-out: Average EC50 ± SD, cell growth inhibition.
A further test concerns MCF7 cells. The experiment in a line: Radiation clonogenic survival assay, MCF7. The note with it: 0.3 μM for 24 h then graded γ-radiation, DMSO control 1.5 Gy. It counts as cell-based. The protocol: Logarithmically growing cells were treated with vehicle (0.1% Dimethyl Sulfoxide) or SP-1-303 (0.3 μM) for 24 h followed by sham or γ-radiation using a Mark-30 irradiator with a 137Cs source at a fixed dose rate of 2.71 Gy/min. Cells were exposed to graded doses at room temperature. After 10–14 days, cells were fixed and stained with crystal violet, and colonies were counted. The surviving fractions of treated cells were normalized using the plating efficiencies of untreated controls. Radiation survival curves were generated by fitting to the single-hit, multitarget model.

With `Cc1[nH]c2ccccc2c1C1=C(c2c(C)[nH]c3ccccc23)C(=O)N(CCCCCCC(=O)NO)C1=O` [SP-1-303], the IC50 in test [1] turned out to be 0.12 ± 0.058 µM; at HDAC6 (purified recombinant protein, ± margin of error of 95% confidence interval, read-out: IC50 HDAC inhibition activity in vitro, HDAC 6), 0.435 ± 0.035 µM; against HDAC8, 0.31 µM. Also, the “ratio of inhibitory concentrations for HDAC6 to HDAC1” value on HDAC6 amounted to 36 fold. For the same compound, the “Ratio (HDAC6:HDAC1)” value on HDAC6 (ratio of IC50 values) is given as 36. Further, the EC50 was found to be 0.34 ± 0.122 µM in the test with MCF7 (ER+) cells; 0.321 ± 0.027 µM in the test with T47D (ER+) cells; 0.32 µM in the test with T47D (ER+) cells (Homo sapiens, T47D, 48 h); 2.48 µM with HCC-1937 (TNB) cells; 2.5 µM in the test on HCC-1937 (TNB) cells (Homo sapiens, HCC1937, 48 h). Besides, in the test on MCF7 cells, the “D0, radiation clonogenic survival” value was 1.3 Gy.
